# Reference: ChEMBL document CHEMBL3885881, “DrugMatrix”
# Species on record: Rattus norvegicus
# Test: DrugMatrix - Regimen: Daily Repeat
# Format: toxicity, organism-based, Sprague-Dawley
# Parameters: regimen Daily Repeat, gender Male, age 6-8 weeks
# Settings: in vivo, po, route oral GAVAGE, vehicle 100 % WATER; for ABSOLUTE BASOPHIL / ABSOLUTE EOSINOPHIL / ABSOLUTE LYMPHOCYTE / ABSOLUTE MONOCYTE / ABSOLUTE SEGMENTED NEUTROPHIL / BASOPHIL / EOSINOPHIL / ERYTHROCYTE COUNT / HEMATOCRIT / HEMOGLOBIN / LEUKOCYTE COUNT / LYMPHOCYTE / MEAN CORPUSCULAR HEMOGLOBIN / MEAN CORPUSCULAR HEMOGLOBIN CONCENTRATION / MEAN CORPUSCULAR VOLUME / MONOCYTE / NEUTROPHIL / NUCLEATED RED BLOOD CELLS / PLATELET COUNT: tissue Blood; for ALANINE AMINOTRANSFERASE / ALBUMIN / ALKALINE PHOSPHATASE / ASPARTATE AMINOTRANSFERASE / BLOOD UREA NITROGEN / CARBON DIOXIDE / CHLORIDE / CHOLESTEROL / CREATINE PHOSPHOKINASE / CREATININE / GLUCOSE / LACTATE DEHYDROGENASE / LIPASE / PHOSPHORUS / POTASSIUM / SODIUM / TOTAL BILIRUBIN / TOTAL PROTEIN / URIC ACID: tissue Plasma
# [1] = 300 mg/kg, 120 h, dose level Low, time 5 day
# [2] = 3000 mg/kg, 72 h, dose level High, time 3 day
# [3] = 3000 mg/kg, 120 h, dose level High, time 5 day
structure (smiles),measurement,setting,value
CC(Cl)(Cl)Cl [TRICHLOROETHANE],ABSOLUTE BASOPHIL,[1],0 CELLS/uL
same,ABSOLUTE EOSINOPHIL,[1],0 CELLS/uL
same,ABSOLUTE LYMPHOCYTE,[1],11569 CELLS/uL
same,ABSOLUTE MONOCYTE,[1],149.67 CELLS/uL
same,ABSOLUTE SEGMENTED NEUTROPHIL,[1],1081.33 CELLS/uL
same,BASOPHIL,[1],0%
same,EOSINOPHIL,[1],0%
same,ERYTHROCYTE COUNT,[1],5.76 x10E6/uL
same,HEMATOCRIT,[1],36.17%
same,HEMOGLOBIN,[1],14.07 G/DL
same,LEUKOCYTE COUNT,[1],12.8 x10E3/uL
same,LYMPHOCYTE,[1],90%
same,MEAN CORPUSCULAR HEMOGLOBIN,[1],24.43 pg
same,MEAN CORPUSCULAR HEMOGLOBIN CONCENTRATION,[1],38.9 G/DL
same,MEAN CORPUSCULAR VOLUME,[1],62.7 fL
same,MONOCYTE,[1],1%
same,NEUTROPHIL,[1],9%
same,NUCLEATED RED BLOOD CELLS,[1],0.33 /100WBC
same,PLATELET COUNT,[1],1070.67 x10E3/uL
same,ALANINE AMINOTRANSFERASE,[1],50.33 u/L
same,ALBUMIN,[1],4.07 G/DL
same,ALKALINE PHOSPHATASE,[1],394 u/L
same,ASPARTATE AMINOTRANSFERASE,[1],95 u/L
same,BLOOD UREA NITROGEN,[1],16.33 mg/dL
same,CARBON DIOXIDE,[1],32.33 mmol/L
same,CHLORIDE,[1],103.33 MEQ/L
same,CHOLESTEROL,[1],65 mg/dL
same,CREATINE PHOSPHOKINASE,[1],400 u/L
same,CREATININE,[1],0.17 mg/dL
same,GLUCOSE,[1],135.67 mg/dL
same,LACTATE DEHYDROGENASE,[1],117.67 u/L
same,LIPASE,[1],10.67 u/L
same,PHOSPHORUS,[1],11.3 mg/dL
same,POTASSIUM,[1],6.41 MEQ/L
same,SODIUM,[1],148.03 MEQ/L
same,TOTAL BILIRUBIN,[1],0.2 mg/dL
same,TOTAL PROTEIN,[1],6.03 G/DL
same,URIC ACID,[1],0.9 mg/dL
same,ABSOLUTE BASOPHIL,[2],0 CELLS/uL
same,ABSOLUTE EOSINOPHIL,[2],0 CELLS/uL
same,ABSOLUTE LYMPHOCYTE,[2],11145.5 CELLS/uL
same,ABSOLUTE MONOCYTE,[2],120.5 CELLS/uL
same,ABSOLUTE SEGMENTED NEUTROPHIL,[2],784 CELLS/uL
same,BASOPHIL,[2],0%
same,EOSINOPHIL,[2],0%
same,ERYTHROCYTE COUNT,[2],6.08 x10E6/uL
same,HEMATOCRIT,[2],38.1%
same,HEMOGLOBIN,[2],14.85 G/DL
same,LEUKOCYTE COUNT,[2],12.05 x10E3/uL
same,LYMPHOCYTE,[2],92.5%
same,MEAN CORPUSCULAR HEMOGLOBIN,[2],24.45 pg
same,MEAN CORPUSCULAR HEMOGLOBIN CONCENTRATION,[2],39 G/DL
same,MEAN CORPUSCULAR VOLUME,[2],62.65 fL
same,MONOCYTE,[2],1%
same,NEUTROPHIL,[2],6.5%
same,NUCLEATED RED BLOOD CELLS,[2],0.5 /100WBC
same,PLATELET COUNT,[2],1361.5 x10E3/uL
same,ALANINE AMINOTRANSFERASE,[2],49.5 u/L
same,ALBUMIN,[2],4.15 G/DL
same,ALKALINE PHOSPHATASE,[2],322 u/L
same,ASPARTATE AMINOTRANSFERASE,[2],87.5 u/L
same,BLOOD UREA NITROGEN,[2],11.5 mg/dL
same,CARBON DIOXIDE,[2],33 mmol/L
same,CHLORIDE,[2],102.5 MEQ/L
same,CHOLESTEROL,[2],91.5 mg/dL
same,CREATINE PHOSPHOKINASE,[2],450 u/L
same,CREATININE,[2],0.17 mg/dL
same,GLUCOSE,[2],131 mg/dL
same,LACTATE DEHYDROGENASE,[2],260 u/L
same,LIPASE,[2],9.5 u/L
same,PHOSPHORUS,[2],9.5 mg/dL
same,POTASSIUM,[2],5.71 MEQ/L
same,SODIUM,[2],148.15 MEQ/L
same,TOTAL BILIRUBIN,[2],0.1 mg/dL
same,TOTAL PROTEIN,[2],6.35 G/DL
same,URIC ACID,[2],0.5 mg/dL
same,ABSOLUTE BASOPHIL,[3],0 CELLS/uL
same,ABSOLUTE EOSINOPHIL,[3],0 CELLS/uL
same,ABSOLUTE LYMPHOCYTE,[3],9273 CELLS/uL
same,ABSOLUTE MONOCYTE,[3],138.67 CELLS/uL
same,ABSOLUTE SEGMENTED NEUTROPHIL,[3],1121.67 CELLS/uL
same,BASOPHIL,[3],0%
same,EOSINOPHIL,[3],0%
same,ERYTHROCYTE COUNT,[3],5.95 x10E6/uL
same,HEMATOCRIT,[3],36.77%
same,HEMOGLOBIN,[3],13.97 G/DL
same,LEUKOCYTE COUNT,[3],10.53 x10E3/uL
same,LYMPHOCYTE,[3],87.67%
same,MEAN CORPUSCULAR HEMOGLOBIN,[3],23.57 pg
same,MEAN CORPUSCULAR HEMOGLOBIN CONCENTRATION,[3],37.97 G/DL
same,MEAN CORPUSCULAR VOLUME,[3],62 fL
same,MONOCYTE,[3],1.33%
same,NEUTROPHIL,[3],11%
same,NUCLEATED RED BLOOD CELLS,[3],0 /100WBC
same,PLATELET COUNT,[3],1168 x10E3/uL
same,ALANINE AMINOTRANSFERASE,[3],46.33 u/L
same,ALBUMIN,[3],4.03 G/DL
same,ALKALINE PHOSPHATASE,[3],272 u/L
same,ASPARTATE AMINOTRANSFERASE,[3],71 u/L
same,BLOOD UREA NITROGEN,[3],14.33 mg/dL
same,CARBON DIOXIDE,[3],30.67 mmol/L
same,CHLORIDE,[3],100.33 MEQ/L
same,CHOLESTEROL,[3],74 mg/dL
same,CREATINE PHOSPHOKINASE,[3],156.67 u/L
same,CREATININE,[3],0.17 mg/dL
same,GLUCOSE,[3],120.67 mg/dL
same,LACTATE DEHYDROGENASE,[3],107 u/L
same,LIPASE,[3],10.33 u/L
same,PHOSPHORUS,[3],12.33 mg/dL
same,POTASSIUM,[3],6.12 MEQ/L
same,SODIUM,[3],147.17 MEQ/L
same,TOTAL BILIRUBIN,[3],0.13 mg/dL
same,TOTAL PROTEIN,[3],6.2 G/DL
same,URIC ACID,[3],1.1 mg/dL
